Test results reported in ChEMBL document CHEMBL5154799, “Discovery of a Novel Stilbene Derivative as a Microtubule Targeting Agent Capable of Inducing Cell Ferroptosis” (J Med Chem, 2022).
Activity calls are given as the source filed them. The rule behind the calls is not given here.

What was measured:
Tubulin (Homo sapiens) [1] = biological target: T1, Tubulin (Homo sapiens) (UniProt P68371+Q9H4B7+P0DPH7+P68366+Q13509+Q71U36+P04350+Q3ZCM7+P07437+P68363+Q9BQE3+Q6PEY2+Q13885+Q9BVA1+Q9BUF5); assay: Inhibition of [3H]colchicine binding to tubulin (unknown origin) at 0.075 uM by competitive binding assay relative to control; type: protein-complex assay
Tubulin (Homo sapiens) [2] = biological target: T1, Tubulin (Homo sapiens); assay: Induction of microtubule disruption in human A549 cells assessed as shrunken spindle shaped microtubule structure at 5 to 20 uM incubated for 12 hrs by immunofluorescence based laser scanning confocal microscopic analysis; type: cell-based; conditions: dose 5-20 µM
[3] = Toxicity in athymic nude BALB/c mouse assessed as change in body weight at 10 mg/kg, ip measured for 30 days; type: organism-based; conditions: in vivo, 720 h, time 30 day
HCT-8 [4] = assay: Antiproliferative activity against human HCT-8 cells assessed as inhibition of cell proliferation incubated for 2 hrs by CCK-8 assay; type: functional, cell-based; conditions: DDE = dose-dependent effect
HeLa [5] = assay: Antiproliferative activity against human HeLa cells assessed as inhibition of cell proliferation incubated for 2 hrs by CCK-8 assay; type: functional, cell-based; conditions: DDE = dose-dependent effect
[6] = AUC (0 to infinity) in ICR mouse at 10 mg/kg, po single administration measured for 24 hrs post treatment by LC-MS/MS analysis; type: ADME, organism-based; design: time 24 hrs, dose 10 mg/kg, route po; conditions: in vivo
Tubulin (Homo sapiens) [7] = biological target: T1, Tubulin (Homo sapiens); assay: Inhibition of tubulin polymerization (unknown origin) by microplate reader analysis; type: protein-complex assay; conditions: dose 5-0.16 µM, DDE = dose-dependent effect
A2780 = assay: Antiproliferative activity against human A2780 cells assessed as inhibition of cell proliferation incubated for 2 hrs by CCK-8 assay; type: functional, cell-based; conditions: DDE = dose-dependent effect
A549 [8] = assay: Induction of ferroptosis in human A549 cells assessed as rupture of plasma membrane incubated for 24 hrs by CCK-8 assay; type: functional, cell-based
[9] = Toxicity in human A549 cells xenografted in athymic nude BALB/c nude mouse assessed as morphological changes in spleen at 10 mg/kg, ip measured after 30 days by H and E staining based histological analysis; type: organism-based; conditions: in vivo, 720 h, time 30 day
HCT-8 [10] = assay: Antiproliferative activity against human HCT-8 cells assessed as cell viability incubated for 48 hrs by MTT assay; type: functional, cell-based; conditions: HCT-8, 48 h
[11] = Toxicity in human A549 cells xenografted in athymic nude BALB/c nude mouse assessed as morphological changes in kidney at 10 mg/kg, ip measured after 30 days by H and E staining based histological analysis; type: organism-based; conditions: in vivo, 720 h, time 30 day
Tubulin = assay: Inhibition of tubulin polymerization (unknown origin) assessed as fluorescence intensity emission at 410 nm for 60 mins; type: protein-complex assay, Homo sapiens
A549 [12] = assay: Cytotoxicity against human A549 cells assessed as reduction in cell viability; type: functional, cell-based
[13] = Selectivity ratio of IC50 for cytotoxicity against human L02 cells assessed as reduction in cell viability to IC50 for cytotoxicity against human A549 cells assessed as reduction in cell viability; type: toxicity, cell-based; conditions: L02 cells versus A549 cells
[14] = Cmax in ICR mouse at 1 mg/kg, iv single administration measured for 24 hrs post treatment by LC-MS/MS analysis; type: ADME, organism-based; design: time 24 hrs, dose 1 mg/kg, route iv; conditions: in vivo
[15] = Cytotoxicity against human L02 cells assessed as reduction in cell viability; type: toxicity, cell-based
A549 [16] = assay: Induction of ferroptosis in human A549 cells assessed as cell swelling incubated for 24 hrs by CCK-8 assay; type: functional, cell-based
[17] = Tmax in ICR mouse at 10 mg/kg, po single administration measured for 24 hrs post treatment by LC-MS/MS analysis; type: ADME, organism-based; conditions: in vivo
A549 [18] = assay: Induction of ferroptosis in human A549 cells assessed as induction of lipid […] accumulation at 5 to 20 nM incubated for 24 hrs by C11-BODIPY-581/591 staining based flow cytometry analysis; type: functional, cell-based; conditions: dose 5-20 nM
A549 [19] = assay: In vivo antitumor activity against human A549 cells xenografted in athymic nude BALB/c mouse assessed as tumor growth inhibition at 10 mg/kg measured after 30 days relative to control; type: functional; conditions: A549, 720 h, time 30 day, read-out: TGI
[20] = Resistance index, ratio of IC50 for antiproliferative activity against human paclitaxel-resistant A2780/TAX cells to IC50 for antiproliferative activity against human A2780 cells; type: functional
Tubulin (Homo sapiens) [21] = biological target: T1, Tubulin (Homo sapiens); assay: Induction of microtubule disruption in human A549 cells assessed as abnormal uncondensed cytoplasm at 5 to 20 uM incubated for 12 hrs by immunofluorescence based laser scanning confocal microscopic analysis; type: cell-based; conditions: dose 5-20 µM
A549 [22] = assay: Induction of apoptosis in human A549 cells assessed as cell viability pretreated with ferroptosis inhibitor desferoxamine for 24 hrs followed by incubation with compound at 20 nM and measured after 48 hrs by CCK-8 assay; type: functional, cell-based
HUVEC = assay: Vascular disruptive effect in HUVEC cells assessed as reduction in tube formation at 10 nM measured after 6 to 9 hrs; type: functional, cell-based; conditions: Homo sapiens, time 6-9 hrs
[23] = Half life in ICR mouse at 1 mg/kg, iv single administration measured for 24 hrs post treatment by LC-MS/MS analysis; type: ADME, organism-based; conditions: in vivo
[24] = AUC (0 to t) in ICR mouse at 1 mg/kg, iv single administration measured for 24 hrs post treatment by LC-MS/MS analysis; type: ADME, organism-based; conditions: in vivo
[25] = Cytotoxicity against HLF cells assessed as reduction in cell viability; type: toxicity, cell-based; conditions: human
HeLa [26] = assay: Antiproliferative activity against human HeLa cells assessed as cell viability incubated for 48 hrs by MTT assay; type: functional, cell-based
Tubulin (Homo sapiens) [27] = biological target: T1, Tubulin (Homo sapiens); assay: Inhibition of [3H]colchicine binding to tubulin (unknown origin) at 2.5 uM by competitive binding assay relative to control; type: protein-complex assay
[28] = MRT in ICR mouse at 1 mg/kg, iv single administration measured for 24 hrs post treatment by LC-MS/MS analysis; type: ADME, organism-based; conditions: in vivo
[29] = Selectivity ratio of IC50 for cytotoxicity against HUVEC cells assessed as reduction in cell viability to IC50 for cytotoxicity against human A549 cells assessed as reduction in cell viability; type: toxicity, cell-based; conditions: HUVEC cells versus A549 cells
A549 [30] = assay: Cell cycle arrest in human A549 cells assessed as increase in accumulation in G2/M phase at 5 to 20 nM by PI staining based flow cytometry analysis; type: functional; conditions: dose 5-20 nM, time 24-48 hrs, TDE = time-dependent effect
[31] = Toxicity in human A549 cells xenografted in athymic nude BALB/c nude mouse assessed as morphological changes in liver at 10 mg/kg, ip measured after 30 days by H and E staining based histological analysis; type: organism-based; conditions: in vivo, 720 h, time 30 day
[32] = Cytotoxicity against HUVEC cells assessed as reduction in cell viability; type: toxicity, cell-based; conditions: human
[33] = Oral bioavailability in ICR mouse at 10 mg/kg single administration measured for 24 hrs post treatment by LC-MS/MS analysis; type: ADME, organism-based; conditions: in vivo
[34] = Toxicity in human A549 cells xenografted in athymic nude BALB/c nude mouse assessed as morphological changes in lung at 10 mg/kg, ip measured after 30 days by H and E staining based histological analysis; type: organism-based; conditions: in vivo, 720 h, time 30 day
[35] = Cmax in ICR mouse at 10 mg/kg, po single administration measured for 24 hrs post treatment by LC-MS/MS analysis; type: ADME, organism-based; design: time 24 hrs, dose 10 mg/kg, route po; conditions: in vivo
MCF7 = assay: Antiproliferative activity against human MCF7 cells assessed as cell viability incubated for 48 hrs by MTT assay; type: functional, cell-based; conditions: MCF7, 48 h

C=C(c1cc(OC)c(OC)c(OC)c1)c1ccc(OC)c(O)c1NC(=O)CO
inhibition (Tubulin (Homo sapiens) [1]): 16.7%
Activity (Tubulin (Homo sapiens) [2]): Active
Activity [3]: Non-Toxic
Activity (HCT-8 [4]): Dde
Activity (HeLa [5]): Dde
AUC [6]: 2463.76 h/ng/mL
inhibition (Tubulin (Homo sapiens) [7]): Dde
Activity (A2780): Dde
Activity (A549 [8]): Active
Activity [9]: Non-Toxic
IC50 (HCT-8 [10]): 40 nM
Activity [11]: Non-Toxic
IC50 (Tubulin): 580 nM
IC50 (A549 [12]): 10 nM
selectivity ratio [13]: 145
Cmax [14]: 871 ng/mL
IC50 [15]: 1450 nM
Activity (A549 [16]): Active
Tmax [17]: 15 min
Activity (A549 [18]): Active
inhibition in vivo at 10 mg/kg (A549 [19]): 78.6%
Ratio IC50 [20]: 2
Activity (Tubulin (Homo sapiens) [21]): Active
Activity (A549 [22]): Active
Activity (HUVEC): Active
half-life [23]: 37.2 min
AUCt [24]: 350.19 h/ng/mL
IC50 [25]: 1320 nM
IC50 (HeLa [26]): 20 nM
inhibition (Tubulin (Homo sapiens) [27]): 64.8%
MRT [28]: 40.8 min
selectivity ratio [29]: 4
Activity (A549 [30]): Tde
Activity [31]: Non-Toxic
IC50 [32]: 40 nM
bioavailability [33]: 69.5%
Activity [34]: Non-Toxic
Cmax [35]: 776 ng/mL
IC50 (MCF7): 50 nM
